Laboratory results: patent US20030096433A1, “Homogeneous fluorescence assay” (Evotec Analytical Systems GmbH, priority 1999, published 2003)
Values joined by “and” are separate entries in the source; they are usually repeats but may differ in a detail not shown here. Equal values may be shown once. Read-outs that look alike come from different tables or passages of the source. One block for each compound: values may come before it.

Key:
p60src kinase = biological target: T1, p60src kinase (Homo sapiens, UniProt P12931); test: Protein tyrosine kinase pharmaceutical screening assay; assay type: biochemical
T1 construct: purchased Upstate Biotechnology
Description: At first p60src (Upstate Biotechnology) phosphorylates the P2 substrate. The phos-phorylated and biotinylated P1 peptide is depicted as string of beads with attached “P” (phosphate) and triangle (biotin). The phosphorylated P2 competes with P1 for binding to the TRITC-labeled anti-phosphotyrosine antibody. In absence of enzyme activity all fluorescent antibodies are bound to carrier particles via P1 which means maximal binding to carrier particles and correspondingly minimum particle number. The phosphorylated P2 catches the fluorescent antibody preventing the formation of complexes. In that case no binding to carrier particles occurs and maximal particle number will be measured. Potential inhibitors are incubated with the enzyme before the enzyme reaction is started by adding a mixture of P2 and ATP.

anti-estradiol antibody = test: 17-β-Estradiol competitive carrier particle assay (FCS); assay type: binding; details: for IC50: competition with TAMRA-estradiol, carrier particles 160 nm, FCS
Description: The anti-estradiol-antibody was kindly provided by Dr. Schumacher (Institute of Fertility Research, Hamburg). 17-β-estradiol was obtained from Sigma. The protein A coated carrier particles (Protein A Ferrofluid™) with a mean diameter of 160 nm were from Immunicon. The optical set-up was the same as described in Example 1. […] Data evaluation and fitting procedures were the same as described in Example 1. The concentration of the conjugate (TAMRA-estradiol), the corresponding antibody and the carrier particles were kept constant in a specific series of experiments. […] The competitive assays were carried out as follows: The TAMRA conjugate of estradiol was mixed with the corresponding unlabelled molecules. […] Some experiments with JA190-estradiol conjugates were carried out in E-NAP buffer (200 mM sodium acetate, 150 mM NaCl, 0.2% BSA, pH 4). […] All estradiol conjugates, except for the BODIPY™-derivative, bound to an anti-estradiol antibody with similar affinity. […] All other conjugate-antibody interactions remained strong. […] TAMRA-estradiol was used for further assay evaluation.

[1] = test system: anti-estradiol antibodies; test: Estradiol competition assay (fluorescence intensity distribution analysis); assay type: binding, Rabbit; details: 5 nM estradiol-Tamra, 0.18 nM carrier particles, 10 x 2 s
[2] = biological target: anti-theophylline antibody; details: read-out: K2 (KD value for the competitor)

SMILES: Cc1cc(O)c2c(c1)C(=O)c1cc(O)cc(O)c1C2=O [Emodin]
IC50 (p60src kinase; dose-response curves, FIG. 12): 50000 to 100000 nM

SMILES: CN(C)c1ccc2c(-c3ccc(C(=O)NCCOCCOCCNC(=O)CON=C4CC5C(CCC6(C)C(O)CCC56)c5ccc(O)cc54)cc3C(=O)[O-])c3ccc(N(C)C)cc3[o+]c2c1 (centres unmarked) [TAMRA-estradiol]
Kd (anti-estradiol antibody; simultaneous fit of gB and binding degree to equations 1 and 8, read-out: K1 (KD value for the conjugate)): 0.0014 nM

SMILES: C[C@]12CC[C@@H]3c4ccc(O)cc4CC[C@H]3[C@@H]1CC[C@@H]2O [estradiol, 17-β-estradiol]
IC50 (anti-estradiol antibody; read-out: IC50 using the binding degree): 20 nM
IC50 (anti-estradiol antibody; read-out: IC50 using the correlation amplitude gB): 3 nM
IC50 ([1]; FIG. 8A, read-out: IC50 from I1 (intensity of free conjugate), hyperbolic fit): 11.9 ± 2.4 nM
IC50 ([1]; FIG. 8B, read-out: IC50 from I2 (intensity of carrier particles with bound conjugate), hyperbolic fit): 13.3 nM and 13.2 nM
IC50 ([1]; FIG. 8C, read-out: IC50 from I2/(I1+I2), hyperbolic fit): 8.8 ± 1.1 nM

The remaining lines, values ahead:

Km (p60src kinase; turn over velocity versus ATP concentration, FIG. 13, read-out: Michaelis constant KM): 16.2 ± 4 µM
SMILES: Nc1ncnc2c1ncn2[C@@H]1O[C@H](COP(=O)(O)OP(=O)(O)OP(=O)(O)O)[C@@H](O)[C@H]1O [ATP]

Activity on p60src kinase (in words) (p60src kinase; dose-response curves, FIG. 12): inactive
SMILES: O=CN/C=C/c1cc(O)ccc1O [Erbstatin]

Kd ([2]; fit with K1 fixed at 10^−11 M): 0.083 nM
Kd ([2]; simultaneous fit of gB and binding degree to equations 1 and 8, K1 variable): 0.0025 nM
SMILES: Cn1c(=O)c2[nH]cnc2n(C)c1=O [theophylline, Theophylline]
